Measurements published in patent US9605047B2, “Compositions and methods for treating hypertension” (The Brigham and Women's Hospital, Inc., priority 2012, dated 2017).

Key:
[1] = molecular target: T1, ETB cysteinyl thiols (region containing Cys405) (Homo sapiens, UniProt P24530); experiment: Western analysis to detect ETB disulfide bond formation in HPAECs; assay type: cell-based; settings: aldosterone 10^−7 mol/L 24 h or H2O2 200 μmol/L 20 min
T1 construct: endogenous in cells; host or cells: HPAECs (Lonza)
T1 sequence (P24530 27-442): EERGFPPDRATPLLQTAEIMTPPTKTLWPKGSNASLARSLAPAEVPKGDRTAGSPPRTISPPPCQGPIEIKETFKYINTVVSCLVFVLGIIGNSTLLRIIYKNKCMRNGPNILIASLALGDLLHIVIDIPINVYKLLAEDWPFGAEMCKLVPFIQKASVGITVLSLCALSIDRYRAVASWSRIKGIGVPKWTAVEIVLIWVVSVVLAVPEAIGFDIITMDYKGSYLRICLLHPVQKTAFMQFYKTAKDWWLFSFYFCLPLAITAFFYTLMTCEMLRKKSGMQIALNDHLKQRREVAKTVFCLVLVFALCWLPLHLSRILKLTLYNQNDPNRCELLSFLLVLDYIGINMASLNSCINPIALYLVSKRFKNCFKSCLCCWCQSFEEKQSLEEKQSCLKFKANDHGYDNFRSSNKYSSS
Experimental: Western analysis to detect ETB disfulfide bond formation. Western analysis to detect ETB disulfide bond formation was performed as described previously.^7 Briefly, protein extracts from cells were lysed in alkylating buffer containing 0.1 M Tris-HCL, pH 6.8, 1% SDS, 100 mM iodoacetamide, and 100 mM N-ethylmaleimide, and sonicated on ice for 5 min followed by a 30-min incubation at 25° C. Alkylated proteins were then precipitated with acetone. Proteins were resuspended in 50 μl of 0.1 M Tris-HCl, pH 7.4, 1% SDS; and disulfides were reduced with 5 mM tris(2-carboxyethyl)phosphine hydrochloride (TCEP). Following a 20-min incubation at 25° C., TCEP was removed with a Micro Bio-Spin™ column 6 (Bio-Rad), and 1% SDS was added to the eluant. The cysteines previously participating in a disulfide bond, now reduced, were labeled with 1 mM polyethylene glycol-conjugated maleimide (molecular mass 10 kDa) (Fluka). After a 1-h incubation at 25° C., proteins were precipitated with acetone, resuspended in 50 μl of non-reducing SDS electrophoresis buffer, and boiled for 10 min. Protein samples were then size-fractionated electrophoretically using SDS-PAGE, and transferred to a polyvinylidene fluoride membrane. […]

[2] = tested on: NOX4 and NOX4 subunit p22^phox; experiment: NOX4 and p22phox protein levels in HPAECs by Western analysis; assay type: cell-based, human; settings: n=3
Experimental: Cell culture and treatments. Human pulmonary artery endothelial cells (HPAECs) (Lonza) (male donors) were grown to confluence using phenol-free EGM-2 medium supplemented with 5% fetal bovine serum at 37° C., 5% CO2. Cells were passaged twice-weekly using 0.5% trypsin/EDTA, and experiments were performed on cells from passages 4-10. Aldosterone (Steraloids) and ET-1 (1-100 nM) (Sigma-Aldrich) were dissolved in dimethylsufloxide ([…]) and deoxygenated water, respectively, which served as vehicle controls. Cells were treated with aldosterone (10^−−10^−7 mol/L) for 24 h and in selected experiments co-incubated with the mineralocorticoid receptor inhibitor spironolactone (10 μM/l) (Sigma-Aldrich).
(§1) Immunoblotting. Proteins were size fractionated electrophoretically using SDS-PAGE and transferred to polyvinylidene fluoride membranes. The membranes were incubated with anti-ETA (Santa Cruz Biotechnology), anti-ETB (Santa Cruz Biotechnology), anti-NOX4 (Santa Cruz Biotechnology), anti-p22P^phox (Santa Cruz), anti-eNOS (Cell Signaling), anti-PGC-1α (Santa Cruz Biotechnology), and anti-SF (Santa Cruz Biotechnology) antibodies overnight at 4° C. and visualized using the ECL detection system (Amersham Biosciences). In experiments to assess ETA expression, purified ETA protein (Novus Biological) was loaded to serve as an internal control.

[3] = tested on: ETB-dependent NO. generation in HPAECs; experiment: NO. metabolites (NO2−, NO3−) in ET-1-stimulated HPAECs; assay type: cell-based, human; settings: n=3
Experimental: Cell culture and treatments. Human pulmonary artery endothelial cells (HPAECs) (Lonza) (male donors) were grown to confluence using phenol-free EGM-2 medium supplemented with 5% fetal bovine serum at 37° C., 5% CO2. Cells were passaged twice-weekly using 0.5% trypsin/EDTA, and experiments were performed on cells from passages 4-10. Aldosterone (Steraloids) and ET-1 (1-100 nM) (Sigma-Aldrich) were dissolved in dimethylsufloxide (10 nmol/L) and deoxygenated water, respectively, which served as vehicle controls. Cells were treated with aldosterone (10^−−10^−7 mol/L) for 24 h and in selected experiments co-incubated with the mineralocorticoid receptor inhibitor spironolactone (10 μM/l) (Sigma-Aldrich).
NO. metabolites. Nitrite (NO2^−) and nitrate (NO3^−) were measured in cell culture medium containing 2% fetal bovine serum and L-arginine (1 mmol/l) (Sigma-Aldrich) by 1(H)-naphthotriazole fluorescence (Cayman) as previously reported.^1 To measure NO2^− levels in whole lung tissue, lung specimens were harvested from rats and snap frozen in liquid nitrogen.

ETA, ETB, eNOS = experiment: ETA, ETB and eNOS protein levels in HPAECs by Western analysis; assay type: cell-based, human
Experimental: as §1, with “anti-[…]^phox” for “anti-p22P^phox”

[4] = tested on: ETB region containing Cys405; experiment: ETB sulfenic acid (R-SOH) by immunoprecipitation and immunoblot in HPAECs; assay type: cell-based, human; settings: aldosterone 10^−7 mol/L, 24 h, vs V, n=3
Experimental: Co-immunoprecipitation of proteins. Cell monolayers were washed twice with ice-cold PBS and incubated on ice with RIPA buffer supplemented with various protease inhibitors (Millpore). Cells were scraped with a rubber policeman and samples were rotated at 4° C. for 15 min. Lysates were centrifuged at 14,000×g at 4° C. for 15 min and the then pre-cleared with a 50% slurry of Protein G agarose beads (Santa Cruz Biotechnology) mixed with PBS. Following removal of the beads by centrifugation, cell lysates were incubated with an anti-ETB or anti-PGC-1α antibody (Santa Cruz Biotechnology) overnight at 4° C. The immunocomplex was captured by incubating lysates with 50% Protein G agarose bead slurry at 4° C. for 1 h. Beads were collected by pulse centrifugation, resuspended in non-reducing sample buffer, and then boiled for 10 min to dissociate the immunocomplex from the beads. Western analysis was performed with an anti-SF (Santa Cruz) or anti-sulfenic acid (R—SOH) antibody (Millpore) as described above.

HPAECs [5] = experiment: Amplex Red assay of hydrogen peroxide levels in HPAECs; assay type: cell-based, human; settings: aldosterone 10^−7 mol/L, 24 h, HPAECs; vs V 65.4±1.6; n=3
Experimental: Human pulmonary artery endothelial cells (HPAECs) (Lonza) (male donors) were grown to confluence using phenol-free EGM-2 medium supplemented with 5% fetal bovine serum at 37° C., 5% CO2. Cells were passaged twice-weekly using 0.5% trypsin/EDTA, and experiments were performed on cells from passages 4-10. Aldosterone (Steraloids) and ET-1 (1-100 nM) (Sigma-Aldrich) were dissolved in dimethylsufloxide (10 nmol/L) and deoxygenated water, respectively, which served as vehicle controls. Cells were treated with aldosterone (10^−−10^−7 mol/L) for 24 h and in selected experiments co-incubated with the mineralocorticoid receptor inhibitor spironolactone (10 μM/l) (Sigma-Aldrich).

HPAECs [6] = experiment: 3-Nitrotyrosine immunohistochemistry in HPAECs; assay type: cell-based, human; settings: V 24.1±3.3, n=5
Experimental: 3-Nitrotyrosine immunohistochemistry. Cells grown to confluence on glass chamber slides were fixed following treatments and anti-3-nitrotyrosine immunohistochemistry (Santa Cruz Biotechnology) was performed using the 3,3′-diaminobenzidine substrate method (Vector laboratories) as described previously.^1

eNOS = eNOS activity ([14C] arginine, NOS activity kit) in HPAECs; assay type: cell-based, human; settings: ET-1 (10 nM) stimulated HPAECs, without or with aldosterone; n=3
Experimental: eNOS activity. eNOS activity was measured using the NOS activity kit (Cayman) according to the manufacturer's instructions with some modifications. Cells were washed with PBS containing 1 mM EDTA, transferred to a microcentrifuge tube, and centrifuged at 14,000×g at 4° C. for 2 min. The supernatant was decanted and homogenization buffer (250 mM Tris-HCl, pH 7.4, 6 μM BH4, 2 μM flavin adenine dinucleotide, and 2 μM flavin adenine mononucleotide) was added to the cell pellets. […] The samples were then centrifuged at 14,000×g for 30 seconds and radioactivity of the eluant was quantified in a liquid scintillation counter (Beckman-Coulter).

[7] = aldosterone 10^−7 mol/L, 24 h, HPAECs

C[C@]12CCC(=O)C=C1CC[C@@H]1[C@@H]2[C@@H](O)C[C@]2(C=O)[C@@H](C(=O)CO)CC[C@@H]12 [aldosterone]
ETB disulfide bond formation (bands at 70 kDa and 90 kDa) [1]: de novo formation of one or two disulfide bonds | protein levels of NOX4 ([2]; aldosterone 10^−7 mol/L): 157.0±4.4 % control | protein levels of p22^phox ([2]; aldosterone 10^−7 mol/L): 829.5±295.6 % control | protein levels of NOX4 ([2]; aldosterone 10^−8 mol/L): 146.3±12.4 % control | protein levels of p22^phox ([2]; aldosterone 10^−8 mol/L): 961±226.2 % control | protein levels of NOX4 ([2]; aldosterone 10^−9 mol/L): 134.6±16.5 % control | protein levels of p22^phox ([2]; aldosterone 10^−9 mol/L): 1009.4±167.0 % control | total NO. metabolite (NOx: NO2^−+NO3^−) formation ([3]; ET-1 (10 nM) stimulated HPAECs, without or with aldosterone): 103.4±12.2 μM/μg protein | decrease in ETB-mediated NO2^− levels ([3]; aldosterone 10^−7 mol/L, 24 h, then ET-1 10 nM, HPAECs): 60.3% | decrease in NO2^−/NO3^− ratio ([3]; aldosterone in ET-1-stimulated HPAECs): 62% | expression of ETA (ETA, ETB, eNOS; [7]): Without influencing protein expression of ETB, or inducing | protein expression of ETB (ETA, ETB, eNOS; [7]): Without influencing | eNOS protein levels (ETA, ETB, eNOS; aldosterone-treated HPAECs): Without influencing | increase in ETB-SOH protein expression levels [4]: 639% | H2O2 accumulation (HPAECs [5]): 100.6±3.5 μM/mg protein | levels of 3-nitrotyrosine (HPAECs [6]): 46.8±6.6 arb. units | eNOS activity (eNOS): 7.6±2.4 [^14C] L-citrulline c.p.m./μg protein
